Test results as given in US20150141351A1, “Solid Pharmaceutical Compositions” (AbbVie Deutschland GmbH & Co. KG, priority 2013, published 2015).

Test: drug substance degradation on hot melt extrusion
Type: physicochemical
Details: hot melt extrusion at a temperature of 165° C.
Method: Compound 1, Compound 2 and ritonavir were extruded using melt-extrusion. 31 g of copovidone, 3.5 g of vitamin E TPGS and 1.0 g of propylene glycol monolaurate were granulated for 2 minutes in a mill. After two hours, the mixture was blended with 5.09 g of ritonavir, 1.27 g of Compound 2, 7.64 g of Compound 1 and 0.5 g colloidal silica for 2 minutes in a blender and subsequently sieved over a 1.0 mm mesh sieve. The mixture was extruded on a Haake/Thermo Fisher extruder at 165° C. at a screw speed of 30 rpm. The extrudate thus prepared contained 15% Compound 1, 10% ritonavir, 2.5% Compound 2, 62% copovidone, 1% colloidal silica (areosil 200), 7% vitamin E TPGS, and 2% propylene glycol monolaurate.
The tablet was also tested for stability. […] The degradation of each drug substance after melt extrusion was within the specifications.

Question: Which “ritonavir degradation when co-extruded with Compound 1 and Compound 2” value does the source give for `CC(C)c1nc(CN(C)C(=O)N[C@H](C(=O)N[C@@H](Cc2ccccc2)C[C@H](O)[C@H](Cc2ccccc2)NC(=O)OCc2cncs2)C(C)C)cs1` [ritonavir] here?
Answer: well within the acceptable levels
